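These data come from cells grown in 96-well plates and exposed to compound for 48 hours at five concentrations. GI50 = concentration required for 50% inhibition of growth.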 Activity calls are given as the source filed them. Rule as the data show it: active = GI50 up to about 1.1 µM and inactive = higher.

These results are taken from ChEMBL document CHEMBL1201862, “PubChem BioAssay data set” (2004).

Among the test systems are KM12; A549; TK-10; UACC-62; SF-268; K562; HCT-15; T47D; IGROV-1; UACC-257; HOP-62; COLO 205; NCI/ADR-RES; HOP-92; MCF7; MDA-N; CCRF-CEM; NCI-H460; NCI-H23; A498.
Common to all, as to assay: NCI-60 cell line screen, 48 h

Take `O=C1CC(NCCCNC2CC(=O)c3c(Br)sc(Br)c32)c2c(Br)sc(Br)c21` (centres undefined): the GI50 in the test with KM12 was 1.49 µM (inactive); in the test with A549, 2.69 µM (inactive); with TK-10, 2.06 µM (inactive); in the test on UACC-62 it was 1.62 µM (inactive); in the test with SF-268, 2.54 µM (inactive); in the test on K562, 0.879 µM (active). Also, the GI50 in the test with HCT-15 is 1.71 µM; in the test on T47D, 2.11 µM (inactive); with IGROV-1, 1.71 µM (inactive); with UACC-257, 2.92 µM (inactive); with HOP-62, 2.84 µM (inactive); with COLO 205, 2.22 µM (inactive). The GI50 in the test on NCI/ADR-RES was 2.16 µM (inactive); in the test on HOP-92 it was 2.48 µM (inactive); in the test with MCF7, 0.369 µM (active); in the test on MDA-N it was 1.79 µM (inactive); with CCRF-CEM, 0.238 µM (active); with NCI-H460, 3.62 µM (inactive). For the same compound, the GI50 with NCI-H23 is 1.83 µM (inactive).

As to `COc1cc(/C=N/N=C2NCCN2)ccc1O`, the GI50 with KM12, with A549, in the test on TK-10, with UACC-62, with SF-268 and in the test on K562 was > 100 µM (inactive) in each case. The GI50 in the test with HCT-15 is more than 100 µM; in the test on T47D, > 100 µM (inactive); in the test with IGROV-1 it was > 100 µM (inactive); with UACC-257 it was > 100 µM (inactive); in the test with HOP-62, > 100 µM (inactive); in the test with COLO 205, > 100 µM (inactive). Also, the GI50 in the test on NCI/ADR-RES, in the test with HOP-92, in the test on MCF7, in the test on MDA-N, in the test with CCRF-CEM and in the test on NCI-H460 was > 100 µM (inactive) in each case. Besides, the GI50 in the test on NCI-H23 is > 100 µM (inactive).

For `NC(=S)N1N=C2c3ccccc3CCC[C@H]2[C@@H]1c1ccccc1`, the GI50 in the test with KM12 was 0.693 µM (active); with A549, 1.52 µM (inactive); in the test with TK-10, 10.3 µM (inactive); with SF-268, 3 µM (inactive); in the test with K562, 0.284 µM (active); in the test on HCT-15 it was 1.29 µM. Besides, the GI50 in the test on T47D is 10 µM (inactive); in the test on IGROV-1, 2.36 µM (inactive); in the test with UACC-257, 2.21 µM (inactive); in the test with HOP-62, 2.2 µM (inactive); with COLO 205, 1.67 µM (inactive); with A498, 3.1 µM (inactive). For the same compound, the GI50 with NCI/ADR-RES is 0.348 µM (active); in the test with MCF7, 0.472 µM (active); with MDA-N it was 0.0531 µM (active); in the test on CCRF-CEM, 0.528 µM (active); with NCI-H460, 1.07 µM (active); in the test with NCI-H23, 1.84 µM (inactive).

As for `COc1ccc2c(c1)CCC1=C/C(=N\NC(N)=O)CCC12C` (centres undefined), the GI50 with KM12 is > 10 µM (inactive); in the test with A549, > 10 µM (inactive); in the test on TK-10 it was > 10 µM (inactive); with UACC-62, 6.41 µM (inactive); in the test on SF-268, > 10 µM (inactive); in the test on K562, > 10 µM (inactive). The GI50 in the test on HCT-15 is more than 10 µM; with T47D it was > 10 µM (inactive); with IGROV-1, > 10 µM (inactive); with UACC-257, > 10 µM (inactive); with HOP-62, > 10 µM (inactive); with COLO 205, > 10 µM (inactive). Besides, the GI50 with NCI/ADR-RES, with HOP-92, in the test with MCF7, in the test with MDA-N, with CCRF-CEM and in the test on NCI-H23 was > 10 µM (inactive) in each case.

Consider `CCCCc1c(OC)cc(O)c2c1C(=O)c1[nH]c(C(=O)O)c(O)c(=O)c1C2=O`, for which the GI50 in the test with KM12 was 29.4 µM (inactive); in the test on A549, 77.1 µM (inactive); in the test with TK-10, 13.9 µM (inactive); in the test with UACC-62 it was 2.28 µM (inactive); in the test on SF-268, 1.95 µM (inactive); in the test on K562 it was > 100 µM (inactive). The GI50 in the test on HCT-15 was 23.8 µM; in the test on T47D it was 9.4 µM (inactive); in the test on IGROV-1, 8.43 µM (inactive); in the test with UACC-257, 10.4 µM (inactive); in the test on HOP-62, 1.57 µM (inactive); in the test on COLO 205 it was 22 µM (inactive). Further, the GI50 with NCI/ADR-RES was 4.18 µM (inactive); in the test with HOP-92 it was 3.19 µM (inactive); in the test with MCF7, 21.1 µM (inactive); in the test on MDA-N it was 17.2 µM (inactive); with CCRF-CEM, 42.1 µM (inactive); in the test on NCI-H460, 46.8 µM (inactive). Further, the GI50 with NCI-H23 was 2.81 µM (inactive).

For `CC(C)NC(=O)OCCN=C1c2ccccc2CCc2ccccc21`, the GI50 in the test with KM12 is 37.2 µM (inactive); with A549 it was 22.8 µM (inactive); in the test with TK-10 it was 26.1 µM (inactive); in the test on UACC-62 it was 16.1 µM (inactive); with SF-268, 26.2 µM (inactive); in the test with K562 it was 21.5 µM (inactive). Further, the GI50 is 24.7 µM with HCT-15; 21 µM (inactive) in the test on T47D; 35.1 µM (inactive) in the test on IGROV-1; 22.9 µM (inactive) with UACC-257; 21 µM (inactive) in the test with HOP-62; 19.1 µM (inactive) in the test with COLO 205. The GI50 is 30.3 µM (inactive) with NCI/ADR-RES; 24.5 µM (inactive) with HOP-92; 22.6 µM (inactive) in the test on MCF7; 18.7 µM (inactive) in the test on MDA-N; 19.6 µM (inactive) in the test with CCRF-CEM; 28.2 µM (inactive) in the test with NCI-H460. Moreover, the GI50 in the test on NCI-H23 was 54.3 µM (inactive).

Regarding `O=c1cccc2n1CC1CNC[C@H]2C1` [CYTISINICLINE], the GI50 with KM12, in the test on A549, with TK-10, in the test with UACC-62, in the test on SF-268 and in the test with K562 was > 100 µM (inactive) each time. For the same compound, the GI50 was more than 100 µM with HCT-15; > 100 µM (inactive) in the test on T47D; > 100 µM (inactive) with IGROV-1; > 100 µM (inactive) with UACC-257; > 100 µM (inactive) in the test with HOP-62; > 100 µM (inactive) in the test on COLO 205. Besides, the GI50 with NCI/ADR-RES, in the test with HOP-92, in the test on MCF7, in the test with MDA-N, in the test on CCRF-CEM and in the test on NCI-H460 was > 100 µM (inactive) in each case. In addition, the GI50 in the test with NCI-H23 was > 100 µM (inactive).

On to `COC(=O)C1=COC(OC2OC(CO)C(O)C(O)C2O)C2C3CN4CCc5c([nH]c6ccccc56)C4(CC12)O3` (centres undefined), for which the GI50 in the test on KM12 was > 100 µM (inactive); in the test with A549 it was > 100 µM (inactive); with TK-10, > 100 µM (inactive); with UACC-62 it was > 100 µM (inactive); with SF-268, 31.9 µM (inactive); in the test on K562, > 100 µM (inactive). The GI50 in the test with HCT-15 is more than 100 µM; in the test with T47D it was > 100 µM (inactive); with IGROV-1, 46.5 µM (inactive); in the test on UACC-257 it was > 100 µM (inactive); in the test with HOP-62 it was > 100 µM (inactive); in the test with COLO 205, > 100 µM (inactive). For the same compound, the GI50 in the test with A498, in the test on NCI/ADR-RES, in the test on MCF7, with MDA-N, in the test with NCI-H460 and in the test with NCI-H23 was > 100 µM (inactive) throughout.

For the compound `CCN(CCCl)c1cc(CN(C)C)cc(NC(=O)c2ccc(C(=O)Nc3cc(CN(C)C)cc(N(CC)CCCl)c3)cc2)c1`, the GI50 is 0.234 µM (active) with KM12; 0.0955 µM (active) in the test with A549; 0.861 µM (active) with TK-10; 0.0736 µM (active) in the test on UACC-62; 0.0502 µM (active) with SF-268; 0.0733 µM (active) in the test on K562. For the same compound, the GI50 in the test with HCT-15 is 5.69 µM; in the test with T47D, 0.134 µM (active); with IGROV-1, 0.135 µM (active); with UACC-257 it was 0.356 µM (active); in the test with HOP-62, 0.133 µM (active); with COLO 205 it was 0.147 µM (active). In addition, the GI50 is 42 µM (inactive) in the test on NCI/ADR-RES; 0.184 µM (active) in the test with HOP-92; 0.017 µM (active) in the test with MCF7; 0.154 µM (active) in the test with MDA-N; 0.0156 µM (active) in the test with CCRF-CEM; < 0.0211 µM (active) with NCI-H460. The GI50 in the test on NCI-H23 was 0.0665 µM (active).

For the compound `COC1=CC(=O)c2c(CCNC(=O)OCc3ccccc3)n[nH]c2C1=O`, the GI50 in the test with KM12 was 10 µM (inactive); with A549, 19.6 µM (inactive); in the test with TK-10, 34 µM (inactive); in the test with UACC-62 it was 5.79 µM (inactive); in the test on K562, 16 µM (inactive); in the test with HCT-15 it was 12.6 µM. Besides, the GI50 is 2.3 µM (inactive) with T47D; 15.4 µM (inactive) in the test on IGROV-1; 14.9 µM (inactive) with UACC-257; 22.3 µM (inactive) with HOP-62; 18.8 µM (inactive) with COLO 205; 17.5 µM (inactive) with A498. Also, the GI50 in the test with NCI/ADR-RES was 75.9 µM (inactive); in the test with MCF7, 8.07 µM (inactive); with MDA-N it was 2.24 µM (inactive); in the test with NCI-H460, 15.3 µM (inactive); in the test with NCI-H23, 4.01 µM (inactive).

Turning to `Cc1nn(-c2ccccc2)c(C)c1/C=N/NC(=O)c1sc(=S)n(-c2ccc(Cl)cc2)c1N`, the GI50 was 8.3 µM (inactive) in the test with KM12; 6.28 µM (inactive) in the test with A549; 1.87 µM (inactive) in the test with TK-10; 5.98 µM (inactive) in the test on UACC-62; 9.57 µM (inactive) in the test on SF-268; 3.52 µM (inactive) in the test on K562. For the same compound, the GI50 is 6.56 µM in the test with HCT-15; 16.5 µM (inactive) in the test on T47D; 1.49 µM (inactive) with IGROV-1; 14.4 µM (inactive) with UACC-257; 6.44 µM (inactive) in the test on HOP-62; 4.69 µM (inactive) with COLO 205. Besides, the GI50 in the test on A498 was 6.18 µM (inactive); with NCI/ADR-RES, 6.21 µM (inactive); in the test on MCF7 it was 18 µM (inactive); with MDA-N, 11.5 µM (inactive); in the test with CCRF-CEM, 6.01 µM (inactive); in the test with NCI-H460, 4.83 µM (inactive). Also, the GI50 with NCI-H23 is 18.9 µM (inactive).
